# Tests used:
# [1] = tested on: DNA replication fork extension, SK-N-BE(2)-C or MDA-MB-231 cells; test: DNA combing analysis (replication fork extension); assay type: cell-based; conditions: synchronized cells, 20 minutes
# Description: FIGS. 7A-7E. Transcription dependent effect on DNA replication and damage. FIG. 7A: Left: Schematic of the cell fractionation procedure. Right: MDA-MB-468 cells were treated by increasing concentrations of AOH1996 (5, 50, or 500 nM) for 24 h. Cells treated with DMSO were used as control. Whole cell extract (WCE) and protein fractions associated with actively transcribed chromatin (CB:RNA+) or with low or non-transcribed chromatin (CB:RNA−) were analyzed by Western blot using antibodies against PCNA, CAF-1, and MCM7. FIG. 7B: Synchronized cancer cells were sequentially incubated in the presence of CldU (light grey) and IdU (dark grey) before and after AOH1996 treatment, respectively. […] Middle and Right: Lengths of CldU (light grey) and IdU (dark grey) incorporated DNA segments measured for more than 30 independent DNA strands from the indicated cancer cell type were averaged and graphed ±S.D. FIG. 7C: Whole cell lysates were extracted from SK-N-AS cells homozygous of the wildtype RPB1 allele or the APIM-mutant allele. Histone H2A.X and γH2A.X was analyzed by Western blot after treatment with or without AOH1996 overnight. FIG. 7D: Histone H2A.X and γH2A.X in whole cell lysates from SK-N-AS cells were analyzed by Western blot after treatment with 500 nM AOH1996 and/or 50 μM DRB overnight. […]
# [2] = tested on: SK-N-DZ neuroblastoma cells; test: Apoptosis (sub-G1, TUNEL assay), cancer cells; assay type: cell-based, human; conditions: 500 nM, 24 h
# Description: FIGS. 3A-3D. Therapeutic properties of AOH1996. FIG. 3A: Normal cells (7SM0032) or cancer cells (SH-SY5Y and SK-N-BE(2)c) cells were fixed, stained with PI, and analyzed by flow cytometry following treatment with 500 nM AOH1996 for the indicated time. FIG. 3B: SK-N-DZ neuroblastoma cells and nonmalignant 7SM0032 stem cells were incubated with 500 nM AOH1996 for 24 h. Then, after being fixed on slides, cell apoptosis were analyzed by a TUNEL assay. Left: TMR fluorophore attached to the free ends of DNA indicates cells undergoing apoptosis. DAPI stained nuclei also shown. Right: Average abundance ±S.D. of apoptotic 7SM0032 (black histogram) and SK-N-DZ (grey histogram) cells relative to the total number of cells are shown in 5 randomly selected fields. […] The relative number of colonies determined in triplicates for each treatment condition were averaged and graphed ±SDs (*, P<0.01). […] Cell growth was measured as the percentage of cell confluence by imaging every 6 h for a total of 48 h.
# Cell apoptosis was measured on a chamber slide at a seeding density of 1×10^5/mL. After treatment with 500 nM AOH1996 for 24 h, cells were fixed and analyzed by a TUNEL assay using the TMR red in situ cell death detection kit (Roche Diagnostics).
smiles,measurement,setting,value
"COc1cccc(Oc2ccccc2NC(=O)CNC(=O)c2cccc3ccccc23)c1 [AOH1996, N-(2-((2-(3-methoxyphenoxy)phenyl)amino)-2-oxoethyl)-1-naphthamide]",length of IdU-incorporated DNA strands,[1],IdU-incorporated DNA strands became significantly shorter in cells treated by AOH1996 than untreated control cells
same,"apoptosis (sub-G1 population, TUNEL positivity)",[2],induced apoptosis
